Values joined by “and” are separate entries in the source; they are usually repeats but may differ in a detail not shown here. Equal values may be shown once. Toxic doses and inconclusive results are not listed. No stated cut-off is given here; in the data, active means T/C of 150% or more; inactive means T/C below 125%.
System: L1210 leukemia ip in BDF1 mice, survival T/C
Assay: NCI In Vivo Anticancer Drug Screen. Data for tumor model L1210 Leukemia (intraperitoneal) in B6D2F1 (BDF1) mice
Settings: endpoint: mean survival time, higher = longer survival
Outline: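 In this screen, tumor-bearing mice given compound are compared to those given vehicle, and their survival values are reported as a treated-to-control quotient.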

[1] = dose: 100.0 mg/kg/injection, schedule: Q01DX001 (ip), vehicle: other
[2] = dose: 200.0 mg/kg/injection, schedule: Q01DX001 (ip), vehicle: other
[3] = dose: 400.0 mg/kg/injection, schedule: Q01DX001 (ip), vehicle: other
[4] = dose: 100.0 mg/kg/injection, schedule: Q04DX003 (ip), vehicle: saline
[5] = dose: 100.0 mg/kg/injection, schedule: Q01DX001 (ip), vehicle: carboxymethylcellulose (CMC)
[6] = dose: 200.0 mg/kg/injection, schedule: Q01DX001 (ip), vehicle: carboxymethylcellulose (CMC)
[7] = dose: 400.0 mg/kg/injection, schedule: Q01DX001 (ip), vehicle: carboxymethylcellulose (CMC)
[8] = dose: 100.0 mg/kg/injection, schedule: Q01DX001 (ip), vehicle: saline
[9] = dose: 200.0 mg/kg/injection, schedule: Q01DX001 (ip), vehicle: saline
[10] = dose: 400.0 mg/kg/injection, schedule: Q01DX001 (ip), vehicle: saline
[11] = dose: 100.0 mg/kg/injection, schedule: Q01DX009 (ip), vehicle: Klucel (hydroxypropylcellulose) (HPC)
[12] = dose: 100.0 mg/kg/injection, schedule: Q04DX003 (ip), vehicle: Klucel (hydroxypropylcellulose) (HPC)
[13] = dose: 200.0 mg/kg/injection, schedule: Q04DX003 (ip), vehicle: Klucel (hydroxypropylcellulose) (HPC)
[14] = dose: 400.0 mg/kg/injection, schedule: Q04DX003 (ip), vehicle: Klucel (hydroxypropylcellulose) (HPC)
[15] = dose: 100.0 mg/kg/injection, schedule: Q04DX003 (ip), vehicle: saline with Tween-80
[16] = dose: 200.0 mg/kg/injection, schedule: Q04DX003 (ip), vehicle: saline with Tween-80
[17] = dose: 400.0 mg/kg/injection, schedule: Q04DX003 (ip), vehicle: saline with Tween-80
[18] = dose: 5.0 mg/kg/injection, schedule: Q01DX001 (ip), vehicle: saline
[19] = dose: 10.0 mg/kg/injection, schedule: Q01DX001 (ip), vehicle: saline
[20] = dose: 20.0 mg/kg/injection, schedule: Q01DX001 (ip), vehicle: saline

Measured: T/C

O=C(c1ccccc1)c1cc(=O)[nH]c(=O)[nH]1
inactive: dose: 47.5 mg/kg/injection, schedule: Q01DX001 (ip), vehicle: Klucel (hydroxypropylcellulose) (HPC) 100 % of control | dose: 95.0 mg/kg/injection, schedule: Q01DX001 (ip), vehicle: Klucel (hydroxypropylcellulose) (HPC) 102 % of control | dose: 190.0 mg/kg/injection, schedule: Q01DX001 (ip), vehicle: Klucel (hydroxypropylcellulose) (HPC) 98 % of control

CN(N=O)C(=O)NCCn1cnc2c(=S)nc[nH]c21
inactive: dose: 6.0 mg/kg/injection, schedule: Q01DX Z (ip), vehicle: carboxymethylcellulose (CMC) 95 % of control | dose: 12.0 mg/kg/injection, schedule: Q01DX Z (ip), vehicle: carboxymethylcellulose (CMC) 92 % of control | dose: 25.0 mg/kg/injection, schedule: Q01DX Z (ip), vehicle: carboxymethylcellulose (CMC) 109 % of control | dose: 50.0 mg/kg/injection, schedule: Q01DX Z (ip), vehicle: carboxymethylcellulose (CMC) 114 % of control | dose: 100.0 mg/kg/injection, schedule: Q01DX Z (ip), vehicle: carboxymethylcellulose (CMC) 104 % of control | dose: 150.0 mg/kg/injection, schedule: Q01DX Z (ip), vehicle: carboxymethylcellulose (CMC) 121 % of control

O=C(OCCCCCCCOC(=O)c1ccc([N+](=O)[O-])cc1)c1ccc([N+](=O)[O-])cc1
inactive: [1] 101 % of control | [2] 96 % of control | [3] 95 % of control

O=C1OC2CC3CCC2C13 (configuration not stated)
inactive: dose: 6.25 mg/kg/injection, schedule: Q01DX001 (ip), vehicle: saline 96 % of control | dose: 12.5 mg/kg/injection, schedule: Q01DX001 (ip), vehicle: saline 96 % of control | dose: 25.0 mg/kg/injection, schedule: Q01DX001 (ip), vehicle: saline 98 % of control

c1cc(CCc2ccncc2)ccn1
inactive: dose: 25.0 mg/kg/injection, schedule: Q04DX003 (ip), vehicle: saline 99 % of control | dose: 50.0 mg/kg/injection, schedule: Q04DX003 (ip), vehicle: saline 99 % of control | [4] 109 % of control and 89 % of control

CCCCC(Cl)(CCCC)C(C)Sc1ccc([N+](=O)[O-])cc1 (configuration not stated)
inactive: [5] 103 % of control | [6] 94 % of control | [7] 100 % of control

COc1ccc(/C=N/N=c2\[nH][nH]/c(=N\N=C\c3ccc(OC)c4ccccc34)c3ccccc23)c2ccccc12
inactive: dose: 50.0 mg/kg/injection, schedule: Q01DX001 (ip), vehicle: saline 100 % of control | [8] 100 % of control | [9] 103 % of control | [10] 105 % of control

O=[N+]([O-])c1cc2c3ccccc3ccc2c2ccccc12
inactive: [11] 96 % of control | [12] 95 % of control | dose: 200.0 mg/kg/injection, schedule: Q01DX009 (ip), vehicle: Klucel (hydroxypropylcellulose) (HPC) 94 % of control | [13] 97 % of control | dose: 400.0 mg/kg/injection, schedule: Q01DX009 (ip), vehicle: Klucel (hydroxypropylcellulose) (HPC) 100 % of control | [14] 94 % of control

O=c1[nH]cnc2c1c(Br)cn2C1OC(CO)C(O)C1O (configuration not stated)
inactive: [5] 110 % of control | [6] 112 % of control | [7] 121 % of control

Cc1cc[n+](Cc2ccccc2Cl)c(C)c1
inactive: dose: 6.25 mg/kg/injection, schedule: Q01DX009 (ip), vehicle: saline 105 % of control | dose: 6.25 mg/kg/injection, schedule: Q04DX003 (ip), vehicle: saline 96 % of control | dose: 8.0 mg/kg/injection, schedule: Q01DX009 (ip), vehicle: saline 99 % of control | dose: 12.0 mg/kg/injection, schedule: Q01DX009 (ip), vehicle: saline 96 % of control | dose: 12.5 mg/kg/injection, schedule: Q04DX003 (ip), vehicle: saline 102 % of control | dose: 18.0 mg/kg/injection, schedule: Q01DX009 (ip), vehicle: saline 105 % of control | dose: 25.0 mg/kg/injection, schedule: Q01DX009 (ip), vehicle: saline 113 % of control

C=CCN1C(=O)C2C3C=CC(C3)C2C1=O (configuration not stated)
inactive: dose: 6.0 mg/kg/injection, schedule: Q04DX002 (ip), vehicle: Klucel (hydroxypropylcellulose) (HPC) 114 % of control | dose: 25.0 mg/kg/injection, schedule: Q04DX002 (ip), vehicle: Klucel (hydroxypropylcellulose) (HPC) 114 % of control | dose: 50.0 mg/kg/injection, schedule: Q04DX002 (ip), vehicle: Klucel (hydroxypropylcellulose) (HPC) 117 % of control | dose: 100.0 mg/kg/injection, schedule: Q04DX002 (ip), vehicle: Klucel (hydroxypropylcellulose) (HPC) 97 % of control

CCNC(=O)Oc1cccc(NC(=O)OC)c1
inactive: [15] 104 % of control | [16] 93 % of control | [17] 95 % of control

O=C(COc1ccccc1)Nc1ccc([N+](=O)[O-])cc1O
inactive: [12] 97 % of control | [13] 100 % of control | [14] 103 % of control

COc1ccc(C2=NNC(c3ccc(OC)cc3)=NN2)cc1
inactive: [1] 104 % of control | [2] 96 % of control | [3] 93 % of control

O=C(NO)c1ccc(C(=O)NO)c(Br)c1
inactive: dose: 100.0 mg/kg/injection, schedule: Q01DX009 (ip), vehicle: saline 103 % of control | [4] 107 % of control | dose: 200.0 mg/kg/injection, schedule: Q01DX009 (ip), vehicle: saline 112 % of control | dose: 200.0 mg/kg/injection, schedule: Q04DX003 (ip), vehicle: saline 107 % of control | dose: 400.0 mg/kg/injection, schedule: Q01DX009 (ip), vehicle: saline 108 % of control | dose: 400.0 mg/kg/injection, schedule: Q04DX003 (ip), vehicle: saline 105 % of control

COc1ccc(OC)c(/C=C/C(=O)NCC(O)CO)c1 (configuration not stated)
inactive: [15] 105 % of control | [16] 105 % of control | [17] 103 % of control

CCOC(=O)n1ccn2cncc2c1=O
inactive: dose: 100.0 mg/kg/injection, schedule: Q01DX009 (ip), vehicle: saline with Tween-80 86 % of control | [15] 95 % of control | [16] 101 % of control | [17] 95 % of control

O=C(C[n+]1cc2ccccc2c2ccccc21)c1ccccc1
inactive: [11] 95 % of control

O=C1OC(c2ccccc2)=N/C1=C/c1ccc(OCc2ccccc2)c(OCc2ccccc2)c1
inactive: dose: 100.0 mg/kg/injection, schedule: Q01DX001 (ip), vehicle: saline with Tween-80 91 % of control | dose: 200.0 mg/kg/injection, schedule: Q01DX001 (ip), vehicle: saline with Tween-80 95 % of control | dose: 400.0 mg/kg/injection, schedule: Q01DX001 (ip), vehicle: saline with Tween-80 86 % of control

C=C(Cl)CN(C)CC(=C)Cl
inactive: [8] 102 % of control

CCc1ccc(OC/C=C(/C)CC/C=C(\C)CCC=C(C)C)cc1
inactive: dose: 100.0 mg/kg/injection, schedule: Q04DX002 (ip), vehicle: saline with Tween-80 110 % of control | dose: 200.0 mg/kg/injection, schedule: Q04DX002 (ip), vehicle: saline with Tween-80 97 % of control | dose: 400.0 mg/kg/injection, schedule: Q04DX002 (ip), vehicle: saline with Tween-80 87 % of control

Cc1cc(C)c([As](=O)(O)O)c([N+](=O)[O-])c1
inactive: [8] 90 % of control | [9] 101 % of control | [10] 104 % of control

COc1ccc(OC)c(CBr)c1CBr
inactive: [18] 101 % of control | [19] 98 % of control | [20] 101 % of control | dose: 40.0 mg/kg/injection, schedule: Q01DX001 (ip), vehicle: saline 98 % of control | dose: 80.0 mg/kg/injection, schedule: Q01DX001 (ip), vehicle: saline 104 % of control

CCCCCC(C)NCCOC(=O)c1ccc([N+](=O)[O-])cc1 (configuration not stated)
inactive: dose: 75.0 mg/kg/injection, schedule: Q01DX001 (ip), vehicle: other 103 % of control | dose: 150.0 mg/kg/injection, schedule: Q01DX001 (ip), vehicle: other 103 % of control | dose: 300.0 mg/kg/injection, schedule: Q01DX001 (ip), vehicle: other 106 % of control

Cc1ccc(N=Cc2ccccc2O)cc1.[Co]
inactive: [1] 102 % of control | [2] 98 % of control | [3] 110 % of control

N#CC1=C(C#N)C(=O)C(c2ccccc2)=C(c2ccccc2)C1=O
inactive: [18] 97 % of control | [19] 97 % of control | [20] 101 % of control

From PubChem BioAssay AID248 (DTP/NCI, 2004)
